Measurements taken from article PMC6073423, “Dose-Dependent Increase in Unconjugated Cinnamic Acid Concentration in Plasma Following Acute Consumption of Polyphenol Rich Curry in the Polyspice Study” (Nutrients, 2018).
Where two headings read alike, the source gives them in different places.

Legend:
[1] = Plasma nutrikinetics of unconjugated phenolic/aromatic acids after curry test meals (LC-MS/MS, non-compartmental); conditions: for AUC(0-t) / Cmax: male, human; for plasma concentration: all three doses
Source text: The detailed methods for this Polyspice study have been described elsewhere. In brief, this was a three-way randomized, controlled, crossover, acute feeding trial in healthy Chinese males (age 23.7 ± 2.30 y, BMI 23.0 ± 2.31 kg/m^2). Three days prior to the main test day, each volunteer avoided vigorous physical activity and adopted a low polyphenol diet. To help adhere to a ‘low polyphenol diet’ in this run-in period, volunteers were provided with a list of polyphenol rich foods to avoid, which consisted of some fruits and fruit juices, spices and condiments, olive oil, certain vegetables, whole grain cereals, cocoa products, tea (including Green tea), coffee, red wine etc. […] On the main test day, the volunteers arrived at the study center in the morning after an overnight fasting period of a minimum of 10 h. On each of 3 test sessions, the volunteers consumed in random order 1 of 3 test meals: Dose 0 Control (D0C), Dose 1 Curry (D1C) and Dose 2 Curry (D2C). D0C, D1C, and D2C contained 0 g, 6 g, and 12 g mixed spices respectively. The mixed spices were prepared by thoroughly mixing dried powders of 7 different spices consisting of turmeric (Everest Spices, Mumbai, India), coriander seeds (Everest Spices, Mumbai, India), cumin seeds (Everest Spices, Mumbai, India), dried Indian gooseberry (‘amla’, Emblica officinalis, Ramdev Spices, Ahmedabad, India), cayenne pepper (Robertson’s, Durban, South Africa), cinnamon (McCormick’s, Baltimore, MD, USA), and clove (Robertson’s, South Africa) in the ratio of 8:4:4:4:2:1:1 respectively. The ‘base vegetables’ used in the curry recipes consisted of tomatoes, onions, ginger, and garlic in the ratio of 5:2:1:1, with D0C, D1C and D2C containing 0 g, 90 g, and 180 g base vegetables respectively. […] The 3 test meals were matched for total vegetable content by including 130 g peeled eggplant (Solanum melongena) and 50 g tomatoes to D0C and 90 g peeled eggplant to D1C. Plain white rice was consumed along with each test meal and the composition of all 3 test meals were isocaloric and macronutrients matched. A standardized lunch was served after the 3 h postprandial blood draw time point, consisting of a made-to-order chicken lasagna (TopChoice Food Industries (S) Pte Ltd., Singapore), which specifically excluded polyphenol-rich ingredients such as black pepper, herbs, spices, onion, garlic or ginger from the product’s original recipe. There was a minimum of 1-week washout period between each session.
The plasma sample was centrifuged at 1500 g for 10 min at 4 °C within 45 min of collection. Aliquots were stored at −80 °C until analysis.
The panel of phenolic/aromatic acids chosen for analyses were based on the predicted metabolic fate of polyphenols contained within the ingredients used in our test meals, as described above. […] Ultra-pure water from Adrona (Rīga, Latvija) was used. Unless otherwise stated, all chemicals and reagents were obtained from Sigma-Aldrich (St. Louis, MO, USA).
Stock solutions of 10 mM of each analyte were prepared in acetonitrile. Baseline (0 h) plasma was pooled from all participants and used as a matrix in equal volume for each calibration standard. […] All standard solutions were freshly prepared and kept in −20 °C prior to use.
Protein precipitation was undertaken using 400 μL acetonitrile containing 1 µM of BA-d5 internal standard was added to 100 μL of plasma, calibration, quality control or blank samples. The sample was centrifuged at 16,000 g for 15 min at 4 °C. 400 μL of the supernatant was recovered and evaporated under a nitrogen flow. Finally, extracts were reconstituted with 80 μL of 90% mobile phase A and 10% mobile phase B.

[2] = cited from earlier work
[3] = Compartmental nutrikinetic modeling of the CNA plasma concentration-time profile (one-compartment, first-order elimination); format: in vivo; conditions: male, human, oral; for AUC: read-out: AUC (one-compartment model); for Cmax: read-out: Cmax (one-compartment model); for k el: read-out: Ke, elimination rate constant (converted)
Procedure: Compartmental parameter estimates for CNA were determined after fitting of concentration data to several compartmental models on Phoenix WinNonlin (Table S3). The Gauss-Newton algorithm was applied and the final model selection was based on goodness-of-fit comparisons, examination of the residual plots, correlation of the observed and predicted values, and Akaike information criterion. 1/Y^2 model yielded the best fit amongst the various weighting schemes used (1/Y, 1/Y^2, and actual). The final nutrikinetic curve best fit into a one-compartment, first-order elimination, as described by:(1) C(T)=DKa/V (Ka−Ke) [e^−KeT−e^−KaT] where C is the plasma concentration, T is time, Ka is the first-order absorption rate, Ke is the first-order elimination rate constant, D is dose, and V is the apparent volume of distribution. Secondary parameters determined from the model included the Cmax, Tmax, AUC0–7 h as well as the terminal half-life.

[4] = parameters: method as in PMID 23604435; conditions: cited from earlier work
[5] = plasma, oral, 12 g mixed spices
[6] = 0 g mixed spices, D0C, Figure 2C
[7] = 6 g mixed spices, D1C, Figure 2C
[8] = 12 g mixed spices, D2C, Figure 2C

| Structure (SMILES) | AUC(0-t) ([1]; plasma, oral, 0 g mixed spices) [µM·h] | Cmax ([1]; plasma, oral, 0 g mixed spices) [nM] | AUC(0-t) ([1]; plasma, oral, 6 g mixed spices) [µM·h] | Cmax ([1]; plasma, oral, 6 g mixed spices) [nM] | AUC(0-t) [1, 5] [µM·h] | Cmax [1, 5] [nM] | further results |
| --- | --- | --- | --- | --- | --- | --- | --- |
| O=C(O)CCc1cccc(O)c1 [3-(3-hydroxyphenyl)-propanoic acid] | 0.182 ± 0.126 | 58.9 ± 39.1 | 0.283 ± 0.388 | 83.3 ± 79.5 | 0.226 ± 0.177 | 72.5 ± 48.6 | – |
| O=C(O)CCc1ccc(O)cc1 [3-(4-hydroxyphenyl)-propanoic acid] | 0.126 ± 0.115 | 31.4 ± 25 | 0.178 ± 0.12 | 48.6 ± 36.6 | 0.261 ± 0.132 | 81.7 ± 102 | – |
| O=C(O)c1cccc(O)c1 [3-Hydoxybenzoic acid (3OH-BA), 3-hydroxybenzoic acid] | – | – | – | – | – | – | plasma concentration [1]: below detection limits |
| O=C(O)CNC(=O)c1cccc(O)c1 [3-Hydroxyhippuric acid (3OH-HA), 3-hydroxyhippuric acid] | 0.0707 ± 0.0616 | 26.3 ± 22.5 | 0.0801 ± 0.0683 | 27.4 ± 19.1 | 0.0884 ± 0.0854 | 31.3 ± 26.5 | – |
| O=C(O)Cc1cccc(O)c1 [3-Hydroxyphenylacetic acid (3OH-PAA), 3-hydroxyphenylacetic acid] | 0.101 ± 0.112 | 28.1 ± 26.2 | 0.106 ± 0.07 | 27.2 ± 15.8 | 0.113 ± 0.0904 | 29.1 ± 20.5 | – |
| O=C(O)CCc1ccccc1 [3-Phenylpropanoate acid (PPA), 3-phenylpropanoic acid] | 0.831 ± 0.784 | 279 ± 322 | 2.39 ± 4.37 | 731 ± 1220 | 1.86 ± 3.43 | 554 ± 985 | – |
| O=C(O)c1ccc(O)cc1 [4-Hydroxybenzoic acid (4OH-BA), 4-hydroxybenzoic acid] | 0.036 ± 0.0233 | 13.7 ± 9.9 | 0.0542 ± 0.0346 | 18.3 ± 12.4 | 0.114 ± 0.207 | 41.5 ± 101 | – |
| O=C(O)CNC(=O)c1ccc(O)cc1 [4-Hydroxyhippuric acid (4OH-HA), 4-hydroxyhippuric acid] | – | – | – | – | – | – | plasma concentration [1]: below detection limits |
| O=C(O)Cc1ccc(O)cc1 [4-Hydroxyphenylacetic acid (4OH-PAA), 4-hydroxyphenylacetic acid] | 2.07 ± 1.45 | 566 ± 322 | 2.38 ± 1.07 | 667 ± 305 | 2.17 ± 1.07 | 633 ± 285 | – |
| O=C(O)c1ccccc1 [Benzoic acid (BA), benzoic acid] | – | – | – | – | – | – | AUC(0-t) ([1]; in vivo, 0 g mixed spices): 0.348 ± 0.0868 µM·h; Cmax ([1]; in vivo, 0 g mixed spices): 114 ± 36.7 nM; AUC(0-t) ([1]; in vivo, 6 g mixed spices): 0.347 ± 0.107 µM·h; Cmax ([1]; in vivo, 6 g mixed spices): 113 ± 33.6 nM; AUC(0-t) ([1]; in vivo, 12 g mixed spices): 0.355 ± 0.123 µM·h; Cmax ([1]; in vivo, 12 g mixed spices): 109 ± 34.6 nM |
| O=C(O)/C=C/c1ccccc1 [Cinnamic acid (CNA), cinnamic acid] | 0.0084 ± 0.0034 | 2.4 ± 0.7 | 0.376 ± 0.105 | 164 ± 47.7 | 0.876 ± 0.292 | 342 ± 83 | fraction eliminated via oxidation (β-oxidation) and subsequent glycine conjugation to form HA [2]: 63%; AUC [3, 6]: 0.0254 µM·h; Cmax [3, 6]: 2.73 nM; k el [3, 6]: 8.06e-05 s⁻¹; half-life ([3]; 0 g mixed spices, D0C, Figure 2C, read-out: T0.5, half-life (converted)): 142 min; Tmax ([3]; 0 g mixed spices, D0C, Figure 2C, read-out: Tmax (one-compartment model)): 205 min; AUC [3, 7]: 0.347 µM·h; Cmax [3, 7]: 144 nM; k el [3, 7]: 0.000297 s⁻¹; half-life ([3]; 6 g mixed spices, D1C, Figure 2C, read-out: T0.5, half-life (converted)): 39 min; Tmax ([3]; 6 g mixed spices, D1C, Figure 2C, read-out: Tmax (one-compartment model)): 56.4 min; AUC [3, 8]: 0.847 µM·h; Cmax [3, 8]: 323 nM; k el [3, 8]: 0.000289 s⁻¹; half-life ([3]; 12 g mixed spices, D2C, Figure 2C, read-out: T0.5, half-life (converted)): 40.2 min; Tmax ([3]; 12 g mixed spices, D2C, Figure 2C, read-out: Tmax (one-compartment model)): 58.2 min; half-life ([3]; no lag time, 1st order absorption, 1st order elimination, 1-compartment model, assumes elimination is rate-limiting, read-out: average elimination half-life (converted)): 39.6 min; Tmax ([3]; no lag time, 1st order absorption, 1st order elimination, 1-compartment model, read-out: Tmax (average, compartmental model)): 57.6 min; time of plasma peak post consumption ([1]; D1C and D2C): approximately 1 h; time of secondary peak in plasma ([1]; D1C and D2C periods, Figure 2A): around 3 h |
| O=C(O)CNC(=O)c1ccccc1 [Hippuric acid (HA), hippuric acid] | 1.83 ± 1.42 | 1290 ± 706 | 3.22 ± 3.1 | 1370 ± 1170 | 3.06 ± 1.8 | 1080 ± 616 | maximum concentration in plasma ([1]; most abundant phenolic acid in plasma, Table 1): above 1200 nM; half-life [4]: 1320 min |
| O=C(O)Cc1ccccc1 [Phenylacetic acid (PAA), phenylacetic acid] | – | – | – | – | – | – | AUC(0-t) ([1]; in vivo, 0 g mixed spices): 1.74 ± 1.24 µM·h; Cmax ([1]; in vivo, 0 g mixed spices): 433 ± 287 nM; AUC(0-t) ([1]; in vivo, 6 g mixed spices): 4.44 ± 2.97 µM·h; Cmax ([1]; in vivo, 6 g mixed spices): 1020 ± 826 nM; AUC(0-t) ([1]; in vivo, 12 g mixed spices): 4.13 ± 2.95 µM·h; Cmax ([1]; in vivo, 12 g mixed spices): 1000 ± 666 nM |
